From patent publication US6943190B2, “Method of using pyruvate and/or its derivatives for the treatment of cytokine-mediated inflammatory conditions” (University of Pittsburgh-of the Commonwealth System of …, priority 2001, dated 2005)

Legend:
HMGB-1 = HMGB-1 release from LPS-stimulated RAW264.7 macrophage cultures (western blot); format: cell-based, murine
Procedure: (§1) Cell Culture. BALB/c murine macrophage-like RAW 264.7 cells obtained from the American Type Culture Collection (ATCC Number TIB-71, ATCC, Rockville, Mass.) (61), were cultured in RPMI 1640 (Life Technologies, Grand Island, N.Y.) supplemented with 10% heat inactivated fetal bovine serum (Gemini, Calabasas, Calif.), 2 mM glutamine (Cat. # 25030-149, Gibco BRL, Rockville, Mass.) and antibiotic-antimycotic mix (Cat. # 15240-062, Gibco BRL, Rockville, Mass.) in a humidified incubator with 5% CO2. Cells were mechanically removed and resuspended in serum-free Opti-MEM I medium (Life Technology, Grand Island, N.Y.) to perform experiments at 75% confluence.
Cytokine measurements. TNF concentration in mouse serum and in conditioned media from RAW 264.7 cell cultures was measured by ELISA (minimum detectable concentration=10 pg/ml). […] Mouse serum IL-6 and IL-1β levels were measured using ELISA kits (R&D Systems, Inc., Minneapolis, Minn.). HMGB-1 was analyzed by western blot as previously described by Wang et al, 1999. […] Protein was electroblotting to Immun-blot PVDF membrane (Bio-rad, Hercules Calif.) and HMGB-1 was analyzed using polyclonal 241 antibody and secondary anti-rabbit horseradish peroxidase (Amersham, Pitscataway, N.J.). Standard curves were constructed using r-HMGB-1, and the intensity of the 30 kD band analyzed by densitometry. […]

NF-B = assay: LPS-induced NF-kB activation in RAW264.7 cells (EMSA); format: cell-based, murine; details: EMSA at 15 minutes and 4 hours after LPS
Procedure: as §1
Nuclear extract preparation. The day before use, cells were plated at a density of 1×10^6 per well in 6 well tissue culture plates. After stimulation at indicated times, cells were removed from the incubator and place on ice immediately. Cells were washed once with 2 ml phosphate buffered saline (PBS) then harvested in 1 ml of PBS containing 2% FBS using rubber scrapper. […] The supernatant was transferred to a new tube, protein concentration was determined using a commercially available Bradford assay (Bio-Rad Protein Assay, Hercules, Calif.). […]

CCOC(=O)C(C)=O [ethyl pyruvate]
total intracellular (cell associated) HMGB1 protein concentration (HMGB-1; RAW264.7 cells treated with 1, 5 or 10 mM, 10 or 20 h): did not significantly influence total intracellular HMGB1 protein concentration
LPS-induced HMGB-1 release (HMGB-1; conditioned media, overnight (24 hrs) endotoxin exposure): significantly prevented LPS-induced HMGB-1 release in a concentration dependent manner
LPS-induced activation of NF-B (NF-B): significantly prevented LPS-induced activation of NF-B signaling in a concentration dependent fashion
